Assay results published in PMC2982795 (Nature structural & molecular biology, 2009).
Like-named read-outs stand apart in the source and are kept apart here. One block for each compound: values may come before it.

Columns and labels:
[1] = target: T1, hMSH2/MSH6 (Homo sapiens, UniProt P43246+P52701); test: fluorescence anisotropy, equilibrium binding; settings: no DNA, labelled compound
[2] = target: T2, hMSH2/MSH3 (Homo sapiens, UniProt P20585+P43246); test: fluorescence anisotropy competition, displacement of pre-bound BD-ADP; assay type: binding
T2 sequence (P43246 2-934): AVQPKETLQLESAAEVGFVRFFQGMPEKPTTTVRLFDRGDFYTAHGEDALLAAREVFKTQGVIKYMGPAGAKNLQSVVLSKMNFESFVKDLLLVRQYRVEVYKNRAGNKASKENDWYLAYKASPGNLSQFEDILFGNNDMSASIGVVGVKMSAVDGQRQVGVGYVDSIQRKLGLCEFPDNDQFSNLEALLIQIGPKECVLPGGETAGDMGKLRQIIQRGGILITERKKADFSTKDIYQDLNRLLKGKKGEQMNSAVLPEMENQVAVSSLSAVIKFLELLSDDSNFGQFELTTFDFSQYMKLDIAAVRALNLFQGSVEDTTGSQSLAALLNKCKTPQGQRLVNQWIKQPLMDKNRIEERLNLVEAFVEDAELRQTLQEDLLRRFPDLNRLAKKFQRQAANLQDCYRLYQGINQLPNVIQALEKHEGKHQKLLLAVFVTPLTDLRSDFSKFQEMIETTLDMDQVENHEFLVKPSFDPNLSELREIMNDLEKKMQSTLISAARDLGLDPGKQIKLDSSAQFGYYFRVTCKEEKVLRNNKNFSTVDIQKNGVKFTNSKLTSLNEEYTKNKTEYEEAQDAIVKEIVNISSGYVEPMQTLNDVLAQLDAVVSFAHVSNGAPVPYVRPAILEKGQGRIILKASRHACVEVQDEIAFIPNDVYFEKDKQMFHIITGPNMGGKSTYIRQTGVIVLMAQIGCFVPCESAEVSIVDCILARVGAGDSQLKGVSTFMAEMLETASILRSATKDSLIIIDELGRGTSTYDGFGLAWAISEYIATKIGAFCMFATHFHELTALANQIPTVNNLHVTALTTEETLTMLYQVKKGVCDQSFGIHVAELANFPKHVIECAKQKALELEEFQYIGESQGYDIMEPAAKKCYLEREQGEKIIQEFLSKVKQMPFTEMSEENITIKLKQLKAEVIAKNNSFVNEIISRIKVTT
T2 sequence (P20585 whole entry): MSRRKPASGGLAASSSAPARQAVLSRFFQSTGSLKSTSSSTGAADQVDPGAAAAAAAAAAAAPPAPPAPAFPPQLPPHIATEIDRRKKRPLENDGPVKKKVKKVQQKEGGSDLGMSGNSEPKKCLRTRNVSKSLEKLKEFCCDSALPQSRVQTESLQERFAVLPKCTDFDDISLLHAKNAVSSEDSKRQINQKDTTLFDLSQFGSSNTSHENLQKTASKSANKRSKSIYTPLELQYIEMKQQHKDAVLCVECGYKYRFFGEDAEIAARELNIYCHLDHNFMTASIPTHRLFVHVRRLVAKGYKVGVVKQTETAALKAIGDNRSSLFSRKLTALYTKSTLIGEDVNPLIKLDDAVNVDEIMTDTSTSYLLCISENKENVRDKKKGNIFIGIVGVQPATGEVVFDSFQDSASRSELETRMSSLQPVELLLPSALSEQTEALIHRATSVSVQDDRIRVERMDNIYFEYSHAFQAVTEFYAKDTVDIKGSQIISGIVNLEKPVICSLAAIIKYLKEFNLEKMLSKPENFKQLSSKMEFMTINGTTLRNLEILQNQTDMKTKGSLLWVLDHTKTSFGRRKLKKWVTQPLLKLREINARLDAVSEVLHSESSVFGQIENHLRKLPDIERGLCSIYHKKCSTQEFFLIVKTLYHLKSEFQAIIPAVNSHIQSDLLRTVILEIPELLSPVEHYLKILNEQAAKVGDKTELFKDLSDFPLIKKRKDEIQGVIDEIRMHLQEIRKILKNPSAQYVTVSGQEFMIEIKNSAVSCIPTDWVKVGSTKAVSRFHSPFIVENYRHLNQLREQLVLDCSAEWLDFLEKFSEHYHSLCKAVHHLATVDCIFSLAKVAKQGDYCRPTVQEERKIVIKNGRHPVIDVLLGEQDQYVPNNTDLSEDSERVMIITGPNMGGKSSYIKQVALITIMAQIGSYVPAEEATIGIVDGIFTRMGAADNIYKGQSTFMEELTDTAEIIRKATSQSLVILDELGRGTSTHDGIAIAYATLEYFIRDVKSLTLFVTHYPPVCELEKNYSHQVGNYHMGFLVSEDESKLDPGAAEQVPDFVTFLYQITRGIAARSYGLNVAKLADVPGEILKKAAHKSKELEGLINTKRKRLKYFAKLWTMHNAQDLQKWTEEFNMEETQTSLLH

[3] = target: T2, hMSH2/MSH3; test: UV cross-linking of [alpha-32P]-AMP-PNP, SDS-PAGE; assay type: binding; settings: +Mg2+; no DNA
[4] = target: T1, hMSH2/MSH6; test: UV cross-linking of [alpha-32P]-ADP, SDS-PAGE; assay type: binding
[5] = target: T2, hMSH2/MSH3; test: UV cross-linking of [alpha-32P]-ADP, SDS-PAGE; assay type: binding; settings: 5 mM Mg2+; pH 8.1; no DNA; either hMSH2 or hMSH3 subunit

T1 sequence (P43246 2-934): as the sequence (P43246 2-934) above
T1 sequence (P52701 whole entry): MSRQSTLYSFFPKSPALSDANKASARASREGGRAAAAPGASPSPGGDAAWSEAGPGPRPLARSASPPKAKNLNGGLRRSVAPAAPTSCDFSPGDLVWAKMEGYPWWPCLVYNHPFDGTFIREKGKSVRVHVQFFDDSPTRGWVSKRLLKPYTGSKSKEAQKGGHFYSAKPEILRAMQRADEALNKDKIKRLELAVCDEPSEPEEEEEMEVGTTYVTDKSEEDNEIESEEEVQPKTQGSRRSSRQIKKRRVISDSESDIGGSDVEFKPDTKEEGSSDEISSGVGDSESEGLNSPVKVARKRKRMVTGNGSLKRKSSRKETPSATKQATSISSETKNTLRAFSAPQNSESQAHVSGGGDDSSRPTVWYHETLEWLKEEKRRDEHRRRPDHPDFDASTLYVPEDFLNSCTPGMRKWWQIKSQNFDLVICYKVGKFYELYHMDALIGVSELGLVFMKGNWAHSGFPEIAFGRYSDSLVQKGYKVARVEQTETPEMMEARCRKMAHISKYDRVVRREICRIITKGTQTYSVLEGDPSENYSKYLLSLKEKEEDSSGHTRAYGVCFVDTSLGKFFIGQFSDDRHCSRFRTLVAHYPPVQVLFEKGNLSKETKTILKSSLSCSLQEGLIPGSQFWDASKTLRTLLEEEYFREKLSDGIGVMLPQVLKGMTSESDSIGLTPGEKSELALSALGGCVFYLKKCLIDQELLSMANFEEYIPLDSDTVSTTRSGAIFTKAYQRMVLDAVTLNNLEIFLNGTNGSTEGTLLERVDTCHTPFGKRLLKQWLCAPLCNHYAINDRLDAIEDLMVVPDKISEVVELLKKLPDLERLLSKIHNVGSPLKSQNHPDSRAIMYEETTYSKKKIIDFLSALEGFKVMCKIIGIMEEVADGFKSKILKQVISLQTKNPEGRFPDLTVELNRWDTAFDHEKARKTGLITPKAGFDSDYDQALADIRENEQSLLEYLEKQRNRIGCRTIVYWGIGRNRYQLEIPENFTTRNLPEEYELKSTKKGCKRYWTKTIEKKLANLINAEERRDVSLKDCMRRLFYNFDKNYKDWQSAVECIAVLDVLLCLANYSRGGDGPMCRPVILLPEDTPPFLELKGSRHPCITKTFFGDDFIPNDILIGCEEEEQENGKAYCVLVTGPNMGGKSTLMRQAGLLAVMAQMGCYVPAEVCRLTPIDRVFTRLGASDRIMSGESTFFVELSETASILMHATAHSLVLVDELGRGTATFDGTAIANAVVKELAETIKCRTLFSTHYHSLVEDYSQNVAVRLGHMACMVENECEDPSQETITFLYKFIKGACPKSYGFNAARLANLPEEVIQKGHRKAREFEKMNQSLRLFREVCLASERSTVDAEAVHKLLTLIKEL

Kd ([1]; read-out: binding affinity, +Mg2+): 230 nM
Compound: BD-AMP-PNP

Ki [2]: 11300 nM
Compound: Nc1ncnc2c1ncn2[C@@H]1O[C@H](COP(=O)(O)OP(=O)(O)NP(=O)(O)O)[C@@H](O)[C@H]1O [AMP-PNP]
KD [3]: Results for x-linking with AMP-PNP displayed the same trend

Kd [4]: 650 nM
Compound: Nc1ncnc2c1ncn2[C@@H]1O[C@H](COP(=O)(O)OP(=O)(O)O)[C@@H](O)[C@H]1O [ADP]
Ki ([2]; +Mg2+, no DNA, competitive, hMSH3 subunit): compare KD and Ki for ADP in Supplemental Fig. 1a,c
KD [5]: both subunits bound either nucleotide with high affinity, as quantified by the gel scans

Kd ([1]; no Mg2+ (non-hydrolyzing)): 390 nM
Compound: BD-ATP
